From PubChem BioAssay (NCI)
Where “and” joins values, the source holds several entries; their conditions need not be identical. Identical values can stand only once.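 Growth conditions: 96-well plates. Treatment: test compound, 48 hours, 5 concentrations. Analysis: linear interpolation between bracketing concentrations; unreached endpoints set to highest concentration. GI50 is the concentration that inhibits growth by half. TGI is the concentration that stops growth completely.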

Assays:
Assay in all cases: NCI tumour cell line growth inhibition, 48 h
ACHN renal = system: ACHN renal
HCT-15 colon = system: HCT-15 colon
SK-OV-3 ovarian = system: SK-OV-3 ovarian
NCI-H522 lung = system: NCI-H522 lung
TK-10 renal = system: TK-10 renal
HCT-116 colon = system: HCT-116 colon
HT29 colon = system: HT29 colon
OVCAR-5 ovarian = system: OVCAR-5 ovarian
EKVX NSCLC = system: EKVX NSCLC
786-0 renal = system: 786-0 renal

SMILES	GI50 (ACHN renal)	TGI (ACHN renal)	GI50 (HCT-15 colon)	TGI (HCT-15 colon)	GI50 (SK-OV-3 ovarian)	TGI (SK-OV-3 ovarian)	GI50 (NCI-H522 lung)	TGI (NCI-H522 lung)	GI50 (TK-10 renal)	TGI (TK-10 renal)	GI50 (HCT-116 colon)	TGI (HCT-116 colon)	GI50 (HT29 colon)	TGI (HT29 colon)	GI50 (OVCAR-5 ovarian)	TGI (OVCAR-5 ovarian)	GI50 (EKVX NSCLC)	TGI (EKVX NSCLC)	GI50 (786-0 renal)	TGI (786-0 renal)
C=C(CN1CCN(c2ccccc2F)CC1)c1ccc(C(=O)Nc2ccccc2N)cc1	2.77 µM	> 100 µM	0.737 µM	> 100 µM	7.73 µM	> 100 µM	1.48 µM	4.41 µM	1.7 µM	59.8 µM	0.957 µM	13.5 µM	1.19 µM	4.37 µM	1.29 µM	> 100 µM	4.67 µM	> 100 µM	1.88 µM	> 100 µM
CC1(C)N=C(N)N=C(N)N1c1cccc(CCCCc2ccc(S(=O)(=O)F)cc2Cl)c1	8.66 µM	> 100 µM	4.61 µM	> 100 µM	24.6 µM	> 100 µM	3.6 µM	20 µM	8.66 µM	> 100 µM	1.06 µM	> 37.7 µM	0.788 µM	> 100 µM	6.29 µM	> 100 µM	2.02 µM	> 67.5 µM	3.28 µM	24.5 µM
c1cncc(CNc2ccccc2-c2nnc(Nc3ccc4c(c3)OCCO4)o2)c1	1.08 µM	> 100 µM	0.107 µM	> 100 µM	0.0745 µM	1.79 µM	0.0369 µM	7.9 µM	17 µM	> 100 µM	0.071 µM	> 100 µM	0.0504 µM	15.2 µM	0.658 µM	> 100 µM	0.609 µM	> 100 µM	0.366 µM	> 100 µM
Cc1cccc(C)c1NC(=O)C(=O)CC(=O)CO		> 100 µM		> 100 µM		> 100 µM		> 100 µM		> 100 µM		> 100 µM		> 100 µM		> 100 µM		> 100 µM		> 100 µM
Cc1ccc(C(=O)N/N=C/c2cccc(Oc3ccccc3)c2)cn1	45.9 µM	> 100 µM	3.89 µM	> 100 µM	13 µM	> 100 µM	7.38 µM	> 69.8 µM	14.4 µM	> 100 µM	4.69 µM	> 100 µM	3.25 µM	> 100 µM	> 100 µM	> 100 µM	8.36 µM	> 100 µM	29.1 µM	> 100 µM
CCN(CC)CCCC(C)Nc1cnc(C(=O)Nc2cc(F)cc3cccnc23)cn1 (stereo not given)	2.81 µM and 0.683 µM	9.61 µM and 1.96 µM	3.45 µM and 0.751 µM	13.8 µM and 2.69 µM	14 µM and 1.68 µM	27.7 µM and 3.68 µM	5.51 µM and 1.26 µM	19 µM and 2.9 µM	10.4 µM and 1.54 µM	22.4 µM and 3.12 µM	2.7 µM and 0.35 µM	10.1 µM and 1.23 µM	2.96 µM and 0.668 µM	10.8 µM and 4.76 µM	11 µM and 1.41 µM	23.1 µM and 2.91 µM	10.2 µM and 1.22 µM	22.1 µM and 2.51 µM	8.17 µM and 1.33 µM	22 µM and 2.7 µM
c1ccc2[nH]c(-c3ccc(OCCCCCOc4ccc(-c5nc6ccccc6[nH]5)cc4)cc3)nc2c1	3.29 µM	11.9 µM	1.12 µM	8.11 µM	6.39 µM	17.5 µM	2.29 µM	6.62 µM	2.05 µM	3.77 µM	1.25 µM	3.87 µM	0.629 µM	2.75 µM	2.69 µM	6.75 µM	14.8 µM	> 70.4 µM	2.28 µM	5.92 µM
CCS(=O)(=O)c1ccc(OC)c(Nc2nccc(N(C)c3ccc4c(C)[nH]nc4c3)n2)c1	5.95 µM	> 24.1 µM	5.3 µM	18.3 µM	5.03 µM	17.8 µM	3.57 µM	10.5 µM	5.15 µM	14.5 µM	8.69 µM	> 25 µM	5.66 µM	16.4 µM	5.75 µM	> 22.7 µM	6.85 µM	> 25 µM	5.79 µM	18.4 µM
O=C(Nc1ccc(Nc2ccncc2)cc1)c1ccc(Nc2ccnc3ccc([N+](=O)[O-])cc23)cc1	> 100 µM	> 100 µM	> 100 µM	> 100 µM	> 100 µM	> 100 µM	> 100 µM	> 100 µM	> 100 µM	> 100 µM	> 100 µM	> 100 µM	> 100 µM	> 100 µM	> 100 µM	> 100 µM	> 100 µM	> 100 µM	> 100 µM	> 100 µM
COC1=C(C(=O)OC(C)(C)C)[C@]2(C)C(C(=O)OC(C)(C)C)C(OC)=C(C(=O)OC(C)(C)C)[C@]2(C)C1C(=O)OC(C)(C)C (stereo not given in full)		> 100 µM		> 100 µM		> 100 µM		> 100 µM		> 100 µM		> 100 µM		> 100 µM		> 100 µM		> 100 µM		> 100 µM
Cc1ccc(NS(=O)(=O)c2cc(C)ccc2C)cc1	12.7 µM	90 µM	2.46 µM	33.9 µM	3.68 µM	21.3 µM	2.02 µM	7.61 µM	10.2 µM	37.7 µM	3.55 µM	20.4 µM	2.84 µM	12.3 µM	15.4 µM	72.4 µM	11.8 µM	92.7 µM	10.6 µM	31.4 µM
COc1cc2c(OC)c(c1)CCCC1=CC(=O)C=C(CCC2)C1=O		> 100 µM		98.4 µM		> 100 µM		46.2 µM		> 100 µM		38.1 µM		> 100 µM		> 100 µM		> 87.4 µM		> 55.1 µM
O=C(Nc1ccc2oc(=O)c(C(=O)O)cc2c1)Oc1ccccc1		> 100 µM		> 100 µM		> 100 µM		> 100 µM		> 100 µM		> 100 µM		> 100 µM		> 100 µM		> 100 µM		> 100 µM
Fc1ccc(-c2nnc3sc(-c4cccc(Cl)c4)nn23)cc1Cl	> 100 µM	> 100 µM	> 100 µM	> 100 µM	> 100 µM	> 100 µM	> 100 µM	> 100 µM	> 100 µM	> 100 µM	> 100 µM	> 100 µM	> 100 µM	> 100 µM	> 100 µM	> 100 µM	> 100 µM	> 100 µM	> 100 µM	> 100 µM
